Measurements published in ChEMBL document CHEMBL5335862, “The Science and Art of Structure-Based Virtual Screening” (ACS Med Chem Lett, 2024).

Molecular target: CREB-binding protein (Homo sapiens, UniProt Q92793)
Assay: Inhibition of CREBBP (unknown origin) by TR-FRET assay

CREB-binding protein, sequence (Q92793 whole entry): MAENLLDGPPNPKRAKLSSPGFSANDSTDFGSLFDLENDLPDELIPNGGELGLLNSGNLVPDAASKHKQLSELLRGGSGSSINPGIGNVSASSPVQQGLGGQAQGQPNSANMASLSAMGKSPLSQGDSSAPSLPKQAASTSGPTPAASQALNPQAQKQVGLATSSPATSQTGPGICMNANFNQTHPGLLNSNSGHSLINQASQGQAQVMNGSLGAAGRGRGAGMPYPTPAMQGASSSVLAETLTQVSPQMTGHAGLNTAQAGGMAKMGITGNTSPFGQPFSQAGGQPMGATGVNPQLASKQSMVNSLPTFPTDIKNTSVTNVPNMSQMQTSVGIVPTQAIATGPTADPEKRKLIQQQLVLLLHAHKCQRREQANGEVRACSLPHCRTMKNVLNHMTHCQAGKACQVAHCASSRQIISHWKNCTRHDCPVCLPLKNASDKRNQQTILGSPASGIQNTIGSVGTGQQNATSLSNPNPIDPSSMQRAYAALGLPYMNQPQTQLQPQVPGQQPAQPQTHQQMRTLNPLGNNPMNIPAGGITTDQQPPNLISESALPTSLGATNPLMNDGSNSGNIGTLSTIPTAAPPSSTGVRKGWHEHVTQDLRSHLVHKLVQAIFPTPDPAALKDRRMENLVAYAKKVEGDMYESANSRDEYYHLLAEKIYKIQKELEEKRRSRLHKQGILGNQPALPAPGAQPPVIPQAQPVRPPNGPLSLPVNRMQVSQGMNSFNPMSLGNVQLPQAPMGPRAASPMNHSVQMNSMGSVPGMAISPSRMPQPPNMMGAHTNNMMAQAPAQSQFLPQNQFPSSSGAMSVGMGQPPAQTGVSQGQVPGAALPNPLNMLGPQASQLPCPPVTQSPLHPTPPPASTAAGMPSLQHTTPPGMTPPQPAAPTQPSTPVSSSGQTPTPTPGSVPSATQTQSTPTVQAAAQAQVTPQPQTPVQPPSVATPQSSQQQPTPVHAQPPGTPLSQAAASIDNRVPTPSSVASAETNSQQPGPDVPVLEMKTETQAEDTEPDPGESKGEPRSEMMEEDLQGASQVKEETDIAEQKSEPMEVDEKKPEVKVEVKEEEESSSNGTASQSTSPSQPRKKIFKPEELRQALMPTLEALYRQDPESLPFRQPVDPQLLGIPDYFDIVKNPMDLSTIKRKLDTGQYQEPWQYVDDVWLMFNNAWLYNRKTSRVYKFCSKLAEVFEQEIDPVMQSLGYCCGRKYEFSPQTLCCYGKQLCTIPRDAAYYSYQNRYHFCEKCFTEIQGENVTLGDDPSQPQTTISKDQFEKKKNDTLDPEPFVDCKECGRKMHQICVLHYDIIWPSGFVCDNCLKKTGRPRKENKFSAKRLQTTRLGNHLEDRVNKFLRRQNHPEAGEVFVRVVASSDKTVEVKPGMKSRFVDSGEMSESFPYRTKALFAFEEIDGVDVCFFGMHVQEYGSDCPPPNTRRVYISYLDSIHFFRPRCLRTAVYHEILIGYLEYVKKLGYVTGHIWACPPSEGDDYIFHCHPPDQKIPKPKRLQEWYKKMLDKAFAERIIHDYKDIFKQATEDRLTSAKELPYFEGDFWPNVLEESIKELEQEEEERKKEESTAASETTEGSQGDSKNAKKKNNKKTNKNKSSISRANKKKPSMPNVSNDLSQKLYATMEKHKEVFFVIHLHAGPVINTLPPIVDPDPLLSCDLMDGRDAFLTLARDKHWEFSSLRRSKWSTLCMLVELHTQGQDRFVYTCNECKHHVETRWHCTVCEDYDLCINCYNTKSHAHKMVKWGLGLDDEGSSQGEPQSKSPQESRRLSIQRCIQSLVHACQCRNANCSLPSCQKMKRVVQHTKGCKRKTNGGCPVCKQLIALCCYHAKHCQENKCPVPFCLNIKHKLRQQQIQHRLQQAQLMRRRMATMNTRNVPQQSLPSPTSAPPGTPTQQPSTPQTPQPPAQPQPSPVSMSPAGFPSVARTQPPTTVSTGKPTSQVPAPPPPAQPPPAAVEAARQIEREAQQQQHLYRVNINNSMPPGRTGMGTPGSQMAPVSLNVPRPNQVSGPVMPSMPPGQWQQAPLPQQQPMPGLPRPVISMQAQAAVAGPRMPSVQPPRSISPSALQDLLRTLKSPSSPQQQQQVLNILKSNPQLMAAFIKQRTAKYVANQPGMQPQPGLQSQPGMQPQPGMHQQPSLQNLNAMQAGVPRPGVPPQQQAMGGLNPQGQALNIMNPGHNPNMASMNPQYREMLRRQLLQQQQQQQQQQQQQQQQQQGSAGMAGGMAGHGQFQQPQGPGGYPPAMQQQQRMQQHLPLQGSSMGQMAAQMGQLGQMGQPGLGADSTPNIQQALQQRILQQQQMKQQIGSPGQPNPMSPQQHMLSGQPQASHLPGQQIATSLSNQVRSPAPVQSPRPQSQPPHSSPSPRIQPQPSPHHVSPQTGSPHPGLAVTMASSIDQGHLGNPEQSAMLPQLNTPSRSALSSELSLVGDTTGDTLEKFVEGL

IC50 [nM] | SMILES
300 | Cc1ccc(O)cc1-n1c(N)c(C(N)=O)c2nc3ccccc3nc21
300 | Cc1cc2c(C(N)=O)c(N)n(-c3c(C)ccc(O)c3C)c2nc1C [LUNRESERTIB]
